From ChEMBL document CHEMBL1641362, “Inhibition of P-glycoprotein-mediated Multidrug Resistance (MDR) by N,N-bis(cyclohexanol)amine aryl esters: further restriction of molecular flexibility maintains high potency and efficacy” (Bioorg Med Chem Lett, 2011)

Assay: Inhibition of Pgp-mediated multidrug resistance in doxorubicin-resistant human K562 cells assessed as drug level required for 50% increase in nuclear concentration of pirarubicin by fluorescence assay
Type: cell-based
Conditions: read-out: I50

Row | IC50 | SMILES
1 | 70 nM | COc1cc(C#CC(=O)O[C@H]2CC[C@@H](N(C)[C@H]3CC[C@@H](OC(=O)c4cc(OC)c(OC)c(OC)c4)CC3)CC2)cc(OC)c1OC (mixture of isomers)
2 | 350 nM | COc1cc(CCC(=O)O[C@H]2CC[C@@H](N(C)[C@H]3CC[C@H](OC(=O)c4cc(OC)c(OC)c(OC)c4)CC3)CC2)cc(OC)c1OC (mixture of isomers)
3 | 610 nM | COc1cc(CCC(=O)O[C@H]2CC[C@H](N(C)[C@H]3CC[C@H](OC(=O)c4cc(OC)c(OC)c(OC)c4)CC3)CC2)cc(OC)c1OC (mixture of isomers)
4 | 20 nM | COc1cc(C#CC(=O)O[C@H]2CC[C@@H](N(C)[C@H]3CC[C@H](OC(=O)c4cc(OC)c(OC)c(OC)c4)CC3)CC2)cc(OC)c1OC (mixture of isomers)
5 | 80 nM | COc1cc(C#CC(=O)O[C@H]2CC[C@H](N(C)[C@H]3CC[C@@H](OC(=O)c4cc(OC)c(OC)c(OC)c4)CC3)CC2)cc(OC)c1OC (mixture of isomers)
6 | 630 nM | COc1cc(CCC(=O)O[C@H]2CC[C@H](N(C)[C@H]3CC[C@@H](OC(=O)c4cc(OC)c(OC)c(OC)c4)CC3)CC2)cc(OC)c1OC (mixture of isomers)
7 | 1100 nM | COc1cc(CCC(=O)O[C@H]2CC[C@@H](N(C)[C@H]3CC[C@@H](OC(=O)c4cc(OC)c(OC)c(OC)c4)CC3)CC2)cc(OC)c1OC
8 | 92 nM | COc1cc(/C=C/C(=O)O[C@H]2CC[C@H](N(C)[C@H]3CC[C@@H](OC(=O)c4cc(OC)c(OC)c(OC)c4)CC3)CC2)cc(OC)c1OC (mixture of isomers)
9 | 70 nM | COc1cc(C#CC(=O)O[C@H]2CC[C@H](N(C)[C@H]3CC[C@H](OC(=O)c4cc(OC)c(OC)c(OC)c4)CC3)CC2)cc(OC)c1OC
